Patent publication US6610665B1 (Smithkline Beecham Corporation, priority 1998, dated 2003)
Structures can show the parent of a compound that is named as a salt.

Assays:
Assay type in all cases: cell-based
Settings in all cases: ratio to NECA
adenosine 2a receptor = molecular target: T1, adenosine 2a receptor (Homo sapiens, UniProt P29274); experiment: Agonist activity, CHO cells transfected with human adenosine receptor and CRE-SPAP reporter; basal cAMP (A2a)
T1 construct: expressed in transfected cells; host or cells: CHO cells
T1 sequence (P29274 whole entry): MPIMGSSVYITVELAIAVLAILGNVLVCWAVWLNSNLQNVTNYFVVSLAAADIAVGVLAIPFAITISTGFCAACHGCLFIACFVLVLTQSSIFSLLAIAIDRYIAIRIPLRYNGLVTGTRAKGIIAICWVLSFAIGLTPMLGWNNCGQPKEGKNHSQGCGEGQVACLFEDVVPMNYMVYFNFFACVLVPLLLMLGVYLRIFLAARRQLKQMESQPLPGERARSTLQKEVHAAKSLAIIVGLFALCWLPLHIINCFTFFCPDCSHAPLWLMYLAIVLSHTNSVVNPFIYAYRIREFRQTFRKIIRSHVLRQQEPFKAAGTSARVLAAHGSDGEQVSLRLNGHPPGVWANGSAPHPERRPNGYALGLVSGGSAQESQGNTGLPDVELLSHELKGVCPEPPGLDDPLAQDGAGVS
Protocol: (§1) (1) Agonist activity against adenosine 2a, adenosine 1 and adenosine 3 receptor subtypes.
(§2) Agonist selectivity of compounds against other human adenosine receptors is determined using Chinese hamster ovary (CHO) cells transfected with the gene for the relevant human adenosine receptor following a method based on that of Castanon and Spevak, 1994. The CHO cells are also transfected with cyclic AMP response elements promoting the gene for secreted placental alkaline phosphatase (SPAP) (Wood, 1995). The effect of test compounds may be determined by their effects on basal levels of CAMP (A2a) or on forskolin-enhanced cAMP (A1 and A3) as reflected by changes in levels of SPAP. EC50 values for compounds may then be determined as a ratio to that of the non-selective agonist N-ethyl carboxamide adenosine (NECA).

adenosine 3 receptor = molecular target: T2, adenosine 3 receptor (Homo sapiens, UniProt P0DMS8); experiment: Agonist activity, CHO cells transfected with human adenosine receptor and CRE-SPAP reporter; forskolin-enhanced cAMP (A3)
T2 construct: expressed in transfected cells; host or cells: CHO cells
T2 sequence (P0DMS8 1-318): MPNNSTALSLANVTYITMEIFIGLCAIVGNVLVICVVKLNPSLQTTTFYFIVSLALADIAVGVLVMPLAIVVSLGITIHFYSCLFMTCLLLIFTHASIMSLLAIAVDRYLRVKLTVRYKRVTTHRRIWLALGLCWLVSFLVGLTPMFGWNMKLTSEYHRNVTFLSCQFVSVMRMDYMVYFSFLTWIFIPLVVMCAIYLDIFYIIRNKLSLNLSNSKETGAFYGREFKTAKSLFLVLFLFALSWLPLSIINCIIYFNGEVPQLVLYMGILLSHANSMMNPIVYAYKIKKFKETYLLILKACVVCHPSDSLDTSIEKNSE
Protocol: as §1, §2

adenosine 1 receptor = molecular target: T3, adenosine 1 receptor (Homo sapiens, UniProt P30542); experiment: Agonist activity, CHO cells transfected with human adenosine receptor and CRE-SPAP reporter; forskolin-enhanced cAMP (A1)
T3 construct: expressed in transfected cells; host or cells: CHO cells
T3 sequence (P30542 1-326): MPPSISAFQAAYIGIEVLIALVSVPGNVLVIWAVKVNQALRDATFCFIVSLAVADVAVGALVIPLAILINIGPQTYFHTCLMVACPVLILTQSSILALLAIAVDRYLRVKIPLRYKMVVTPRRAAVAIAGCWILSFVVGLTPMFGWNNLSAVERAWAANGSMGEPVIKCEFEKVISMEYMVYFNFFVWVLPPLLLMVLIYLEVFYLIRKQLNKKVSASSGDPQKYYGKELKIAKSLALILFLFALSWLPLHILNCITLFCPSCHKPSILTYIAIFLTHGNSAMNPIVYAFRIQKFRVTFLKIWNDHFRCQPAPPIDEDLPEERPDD
Protocol: as §1, §2

[1] = * data are minimum values since preparation was found, after testing, to contain an inactive impurity

Row | Compound | A2a, EC50 as a ratio of that of NECA (adenosine 2a receptor; [1]) | A3, EC50 as a ratio of that of NECA (adenosine 3 receptor; [1]) | A1, EC50 as a ratio of that of NECA (adenosine 1 receptor; [1]) | A2a, EC50 as a ratio of that of NECA (adenosine 2a receptor; CHO cells, SPAP readout) | A3, EC50 as a ratio of that of NECA (adenosine 3 receptor; CHO cells, SPAP readout) | A1, EC50 as a ratio of that of NECA (adenosine 1 receptor; CHO cells, SPAP readout)
1 | CCc1noc([C@H]2O[C@@H](n3cnc4c(NC(CC)CC)nc(N[C@H]5CC[C@H](N)CC5)nc43)[C@H](O)[C@@H]2O)n1.O=CO [Example 29, (2R,3R,4S,5S)-2-[2-(trans-4-Amino-cyclohexylamino)-6-(1-ethyl-propylamino)-purin-9-yl]-5-(3-ethyl-[1,2,4]oxadiazol-5-yl)-tetrahydro-furan-3,4-diol formate] | 8.92 | >117 | 989.5 |  |  | 
2 | CCC(CC)Nc1nc(NC(CO)Cc2ccccc2)nc2c1ncn2C1OC(c2nc(C)no2)C(O)C1O [Example 17, (2R,3R,4S,5S)-2-[6-(1-Ethyl-propylamino)-2-(1S-hydroxymethyl-2-phenl-ethylamino)-purin-9-yl]-5-(3-methyl-[1,2,4]oxadiazol-5-yl)-tetrahydro-furan-3,4-diol formate] | 3.97 | >362 | >6244 |  |  | 
3 | CCC(CC)Nc1nc(N[C@H]2CC[C@H](N)CC2)nc2c1ncn2[C@@H]1O[C@H](c2nc(C)no2)[C@@H](O)[C@H]1O.O=CO [Example 16, (2R,3R,4S,5S)-2-[2-(trans-4-Amino-cyclohexylamino)-6-(1-ethyl-propylamino)-purin-9-yl]-5-(3-methyl-[1,2,4]oxadiazol-5-yl)tetrahydro-furan-3,4-diol formate] | 11.87 | >362 | >6244 |  |  | 
4 | CCc1noc(C2OC(n3cnc4c(NCC(c5ccccc5)c5ccccc5)nc(NC5CCN(Cc6ccccc6)C5)nc43)C(O)C2O)n1 [Example 45, (2R,3R,4S,5S)-2-[2-(1-Benzyl-pyrrolidin-3S-ylamino)-6-(2,2-diphenyl-ethylamino)-purin-9-yl]-5-(3-ethyl-[1,2,4]oxadiazol-5-yl)-tetrahydro-furan-3,4-diol diformate] |  |  |  | 29.82 | >165 | >3738.84
5 | CCc1noc(C2OC(n3cnc4c(NCCC5CCCCC5)nc(NCCc5cn(C)cn5)nc43)C(O)C2O)n1.O=CO.O=CO [Example 47, (2R,3R,4S,5S)-2-{6-(2-cyclohexylethylamino)-2-[2-(1-methyl-1H-imidazol4-yl)ethylamino]-purin-9-yl}-5-(3-ethyl-[1,2,4]oxadiazol-5-yl)-tetrahydro-furan-3,4-diol diformate] |  |  |  | 6.93 | >165 | 4993.28
6 | CCC(CC)Nc1nc(NCCc2cn(C)cn2)nc2c1ncn2[C@@H]1O[C@H](c2nc(C)no2)[C@@H](O)[C@H]1O.O=CO [Example 14, (2R,3R,4S,5S)-2-{6-(1-Ethyl-propylamino)-2-[2-(1-methyl-1H-imidazol-4-yl)-ethylamino]-purin-9-yl}-5-(3-methyl-[1,2,4]oxadiazol-5-yl)-tetrahydro-furan-3,4-diol formate] |  |  |  | 0.66 | >239 | >4587
7 | CCC(CC)Nc1nc(NC(CO)C(C)C)nc2c1ncn2C1OC(c2nc(C)no2)C(O)C1O [Example 28, (2R,3R,4S,5S)-2-[6-(1-Ethyl-propylamino)-2-(1S-hydroxymethyl-2-methyl-propylamino)-purin-9-yl]-5-(3-methyl-[1,2,4]oxadiazol-5-yl)-tetrahydro-furan-3,4-diol formate] | 5.49 | >284 | >5263 |  |  | 
8 | CCc1noc([C@H]2O[C@@H](n3cnc4c(NCC(c5ccccc5)c5ccccc5)nc(NCCN5CCOCC5)nc43)[C@H](O)[C@@H]2O)n1.O=CO [Example 31, (2R,3R,4S,5S)-2-[6-(2,2-Diphenyl-ethylamino)-2-(2-morpholin-4-yl-ethylamino)-purin-9-yl]-5-(3-ethyl-[1,2,4]oxadiazol-5-yl)-tetrahydro-furan-3,4-diol formate] |  |  |  | 30.6 | >262 | 6452
9 | CCc1noc([C@H]2O[C@@H](n3cnc4c(NCC(c5ccccc5)c5ccccc5)nc(NCCc5ccc(OC)c(OC)c5)nc43)[C@H](O)[C@@H]2O)n1.O=CO [Example 42, (2R,3R,4S,5S)-2-{2-(2-[3,4-Dimethoxy-phenyl]-ethylamino)-6-(2,2-diphenyl-ethylamino)-purin-9-yl}-5-(3-ethyl-[1,2,4]oxadiazol-5-yl)-tetrahydro-furan-3,4-diol formate] |  |  |  | 32.77 | >130 | >6064
10 | Cc1noc([C@H]2O[C@@H](n3cnc4c(N)nc(NC5CCCC5)nc43)[C@H](O)[C@@H]2O)n1.O=CO [Example 11, (2R,3R,4S,5S)-2-(6-Amino-2-cyclopentylamino-purin-9-yl)-5-(3-methyl-[1,2,4]oxadiazol-5-yl)-tetrahydro-furan-3,4-diol formate] | 6.66 | >266 | 145.5 |  |  | 
11 | CCc1noc([C@H]2O[C@@H](n3cnc4c(NCC(c5ccccc5)c5ccccc5)nc(NCCNc5ccccn5)nc43)[C@H](O)[C@@H]2O)n1.O=CO.O=CO [Example 40] |  |  |  | 4.89 | >130 | >=3311.7
12 | CCc1noc([C@H]2O[C@@H](n3cnc4c(NCC(c5ccccc5)c5ccccc5)nc(NCCN5CCCCC5)nc43)[C@H](O)[C@@H]2O)n1.O=CO [Example 32, (2R,3R,4S,5S)-2-[6-(2,2-Diphenyl-ethylamino)-2-(2-piperidin-1-yl-ethylamino)-purin-9-yl]-5-(3-ethyl-[1,2,4]oxadiazol-5-yl)-tetrahydro-furan-3,4-diol formate] |  |  |  | 31.4 | >258 | 7521
13 | CCC(CC)Nc1nc(NCCN2CCCCC2)nc2c1ncn2[C@@H]1O[C@H](c2nc(C)no2)[C@@H](O)[C@H]1O.O=CO [Example 18, (2R,3R,4S,5S)-2-[6-(1-Ethyl-propylamino)-2-(2-piperidin-1-yl-ethylamino)-purin-9-yl]-5-(3-methyl-[1,2,4]oxadiazol-5-yl)-tetrahydro-furan-3,4-diol formate] | 8.16 | >314 | >6244 |  |  | 
14 | Cc1noc(C2OC(n3cnc4c(N)nc(NC(CO)Cc5ccccc5)nc43)C(O)C2O)n1 [Example 12, (2R,3R,4S,5S)-2-[6-Amino-2-(1S-hydroxymethyl-2-phenyl-ethylamino)-purin-9-yl]-5-(3-methyl-[1,2,4]oxadiazol-5-yl)-tetrahydro-furan-3,4-diol formate] | 4.54 | >302 | 1863.5 |  |  | 
15 | CCc1noc([C@H]2O[C@@H](n3cnc4c(NCCc5ccccc5)nc(NCCc5cn(C)cn5)nc43)[C@H](O)[C@@H]2O)n1.O=CO.O=CO [Example 46] |  |  |  | 0.90 | >165 | 3560.13
16 | CCc1noc(C2OC(n3cnc4c(NCC(c5ccccc5)c5ccccc5)nc(NC(CO)C(C)C)nc43)C(O)C2O)n1 [Example 5, (2R,3R,4S,5S)-2-[6-(2,2-Diphenyl-ethylamino)-2-(1S-hydroxymethyl-2-methyl-propylamino)-purin-9-yl]-5-(3-ethyl-[1,2,4]oxadiazol-5-yl)-tetrahydro-furan-3,4-diol formate] |  |  |  | 6.12 | >309 | 1391.2
17 | Cc1noc([C@H]2O[C@@H](n3cnc4c(N)nc(NCCc5ccccc5)nc43)[C@H](O)[C@@H]2O)n1.O=C(O)C(F)(F)F [Example 15, (2R,3R,4S,5S)-2-(6-Amino-2-phenethylamino-purin-9-yl)-5-(3-methyl-[1,2,4]oxadiazol-5-yl)-tetrahydro-furan-3,4-diol trifluoroacetate] |  |  |  | 2.29 | >130 | >5511
